Reference: patent US6399617B1, “Use” (Biovitrum AB, priority 2000, dated 2002)

Columns and labels:
ob/ob mice = test: Effect of compounds on food intake in ob/ob mice (15 h food consumption during subcutaneous minipump infusion); type: in vivo, mouse; details: subcutaneous continuous infusion
Description: Obese (ob/ob) mouse is selected as the primary animal model for screening as this mutant mouse consumes high amounts of food resulting in a high signal to noise ratio. To further substantiate and compare efficacy data, the effect of the compounds on food consumption is also studied in wild type (C57BL/6J) mice. The amount of food consumed during 15 hours of infusion of compounds is recorded.
Male mice (obese C57BL/6JBom-Lep^ob and lean wild-type C57B1/6JBom; Bomholtsgaard, Denmark) 8-9 weeks with an average body weight of 50 g (obese) and 25 g (lean) are used in all the studies. The animals are housed singly in cages at 23±1° C., 40-60% humidity and have free access to water and standard laboratory chow. The 12/12-h light/dark cycle is set to lights off at 5 p.m. The animals are conditioned for at least one week before start of study.
The test compounds are dissolved in solvents suitable for each specific compound such as cyclodextrin, cyclodextrin/methane sulfonic acid, polyethylene glycol/methane sulfonic acid, or saline. Fresh solutions are made for each study. […] The purity of the test compounds is of analytical grade.
The animals are weighed at the start of the study and randomized based on body weight. Alzet osmotic minipumps (Model 2001D; infusion rate 8 μl/h) are used and loaded essentially as recommended by the Alzet technical information manual (Alza Scientific Products, 1997; Teeuwes and Yam, 1976). Continuous subcutaneous infusion with 24 hours duration is used. The minipumps are either filled with different concentrations of test compounds dissolved in vehicle or with only vehicle solution and maintained in vehicle pre-warmed to 37° C. […]
The weights of the food pellets are measured at 5 p.m. and at 8 p.m. for two days before (baseline) and one day after the implantation of the osmotic minipumps. […]
Food consumption for 15 hours is measured for the three consecutive days and the percentage of basal level values is derived for each animal from the day before and after treatment. The values are expressed as mean±SD and mean±SEM from eight animals per dose group. […]

[1] = Determination of plasma concentration (free plasma concentration at steady state); type: in vivo, mouse; details: ob/ob mice, subcutaneous continuous infusion
Description: The weights of the food pellets are measured at 5 p.m. and at […]. for two days before (baseline) and one day after the implantation of the osmotic minipumps. The weighing is performed with a computer assisted Mettler Toledo PR 5002 balance. Occasional spillage is corrected for. At the end of the study the animals are killed by neck dislocation and trunk blood sampled for later analysis of plasma drug concentrations.
The plasma sample proteins are precipitated with methanol, centrifuged and the supernatant is transferred to HPLC vials and injected into the liquid chromatography/mass spectrometric system. The mass spectrometer is set for electrospray positive ion mode and Multiple Reaction Monitoring (MRM with the transition m/z 316⇄221).
A linear regression analysis of the standards forced through the origin is used to calculate the concentrations of the unknown samples.

COc1ccc(NS(=O)(=O)c2sc3ccc(Cl)cc3c2C)cc1N1CCNCC1.Cl [SB-271046, 5-Chloro-3-methyl-benzo-[b]thiophene-2-sulphonic acid (4-methoxy-3-piperazin-yl-phenyl)-amide monohydrochloride]
reduction of food intake compared to the basal level of food intake (ob/ob mice; 10 mg/kg/day): 45%
reduction of food intake compared to the basal level of food intake (ob/ob mice; 30 mg/kg/day): 60%
reduction of food intake compared to the basal level of food intake (ob/ob mice; 50 mg/kg/day): 77%
Free plasma concentration at the steady state giving the effect ([1]; 10 mg/kg/day): 0.006
Free plasma concentration at the steady state giving the effect ([1]; 30 mg/kg/day): 0.019
Free plasma concentration at the steady state giving the effect ([1]; 50 mg/kg/day): 0.034
